The values below come from patent publication US20250042889A1, “3CLPRO PROTEASE INHIBITOR” (SHANGHAI QILU PHARMACEUTICAL RESEARCH AND DEVELOPMENT …, priority 2021, published 2025).

In the assay the target is SARS-COV-2 3CLpro/Mpro protease (Severe acute respiratory syndrome coronavirus 2 (2019-nCoV) (SARS-CoV-2), UniProt P0DTD1). In words: Inhibitory effect on SARS-COV-2 3CLpro/Mpro protease by fluorescence resonance energy transfer. Type of assay: biochemical. The settings on record: activity intervals A-D, read-out: IC50 (nM), Inhibition on SARS-CoV-2 3CLpro/Mpro protease.

A value given as a limit tells only on which side of the number the result lay.

For `CNc1cncc(C(=O)N2C[C@H](Nc3c(C(=O)N4C[C@@H](C)O[C@@H](C)C4)cc(Br)cc3[N+](=O)[O-])C[C@H]2C(=O)NC2CCN(CCOC)CC2(F)F)c1` (single isomer, unassigned) [Compound 453-P1], the IC50 was in the range of 50 to 100 nM.

`O=C(c1cc(Br)cc([N+](=O)[O-])c1N[C@@H]1CCCN(C(=O)C2CNCC(F)(F)C2)C1)N1CCOC(F)(F)C1` (stereo in doubt) [Example 327]: the IC50 lay in the range of 10 to 50 nM. With `O=C(c1cc(Br)cc([N+](=O)[O-])c1N[C@@H]1CCCN(C(=O)C2CNCC(F)(F)C2)C1)N1CCCC(F)(F)C1` (stereo in doubt) [Example 331], the IC50 was 10 to 50 nM. Under `CNc1cncc(C(=O)N2C[C@H](Nc3c(C(=O)N4C[C@@H](C)O[C@@H](C)C4)cc(Br)cc3[N+](=O)[O-])CC2C#N)c1` (stereo in doubt) [Example 362] stands 50 to 100 nM; under `O=C(N[C@H]1CCCC[C@H]1Nc1c(C(=O)N2CC(F)(F)C2)cc(Br)cc1[N+](=O)[O-])c1cncc2ccccc12` [Example 1, N-((1S,2R)-2-((4-bromo-2-(3,3-difluoroazetidin-1-carbonyl)-6-nitrophenyl)amino)cyclohexyl) isoquinolin-4-formamide], 10 to 50 nM. Then `O=C(N[C@H]1CCCC[C@H]1Nc1c(C(=O)N2CCCCC2)cc(Br)cc1[N+](=O)[O-])c1cncc2ccccc12` [Example 2, N-((1S,2R)-2-((4-bromo-2-nitro-6-(piperidin-1-carbonyl)phenyl)amino)cyclohexyl) isoquinolin-4-formamide], with less than 10 nM. As for `O=C(N[C@H]1CCCC[C@H]1Nc1c(C(=O)N2CCCC2)cc(Br)cc1[N+](=O)[O-])c1cncc2ccccc12` [Example 3, N-((1S,2R)-2-((4-bromo-2-nitro-6-(pyrrolidin-1-carbonyl)phenyl)amino)cyclohexyl) isoquinolin-4-formamide], the IC50 is less than 10 nM.

`O=C(c1cccnc1)N1CCC[C@@H](Nc2c(C(=O)N3CCCCC3)cc(Br)cc2[N+](=O)[O-])C1` [Example 4, (R)-(5-bromo-2-((1-nicotinoylpiperidin-3-yl)amino)-3-nitrophenyl)(piperidin-1-yl)methanone]: the IC50 lay in the range of 50 to 100 nM.

Take `O=C(c1cncc(Br)c1)N1CCC[C@@H](Nc2c(C(=O)N3CCCCC3)cc(Br)cc2[N+](=O)[O-])C1` [Example 5, (R)-(5-bromo-2-((1-(5-bromonicotinoyl)piperidin-3-yl)amino)-3-nitrophenyl)(piperidin-1-yl)methanone]: the IC50 is less than 10 nM. Under `O=C(c1cc(Br)cc([N+](=O)[O-])c1N[C@@H]1CCCN(C(=O)c2cncc3ccccc23)C1)N1CCC(F)(F)CC1` [Example 6, (R)-(5-bromo-2-((1-(isoquinolin-4-carbonyl)piperidin-3-yl)amino)-3-nitrophenyl)(4,4-difluoropiperidin-1-yl)methanone] stands less than 10 nM. Under `CC1(C)C2CN(C(=O)c3cc(Br)cc([N+](=O)[O-])c3N[C@@H]3CCCN(C(=O)c4cncc5ccccc45)C3)CC21` (stereo partly shown) [Example 7] stands 10 to 50 nM; under `O=C(c1cc(Br)cc([N+](=O)[O-])c1N[C@@H]1CCCN(C(=O)c2cncc3cc(Cl)ccc23)C1)N1CCCCC1` [Example 8, (R)-(5-bromo-2-((1-(7-chloroisoquinolin-4-carbonyl)piperidin-3-yl)amino)-3-nitrophenyl)(piperidin-1-yl)methanone], less than 10 nM. Then `O=C(N[C@H]1CCCC[C@H]1Nc1c(C(=O)N2CCCCC2)cc(Br)cc1C(F)(F)F)c1cncc2ccccc12` [Example 9, N-((1S,2R)-2-((4-Bromo-2-(piperidin-1-carbonyl)-6-(trifluoromethyl)phenyl)amino)cyclohexyl) isoquinolin-4-formamide], with less than 10 nM; and `O=C(c1cc(Br)cc([N+](=O)[O-])c1N[C@@H]1CCCN(C(=O)c2cncc3ccccc23)C1)N1CCNCC1` [Example 10], with 10 to 50 nM; and `O=C(c1cc(Br)cc([N+](=O)[O-])c1N[C@@H]1CCCN(C(=O)c2cnnc3ccccc23)C1)N1CCCCC1` [Example 11, (R)-(5-bromo-2-((1-(4-cinnolin-carbonyl)piperidin-3-yl)amino)-3-nitrophenyl)(piperidin-1-yl)methanone], with 50 to 100 nM. Take `O=C(c1cc(Br)cc([N+](=O)[O-])c1N[C@@H]1CCN(C(=O)c2cncc3ccccc23)C1)N1CCCCC1` [Example 12, (R)-(5-bromo-2-((1-(isoquinolin-4-carbonyl)pyrrolidin-3-yl)amino)-3-nitrophenyl)(piperidin-1-yl)methanone]: the IC50 is 10 to 50 nM. With `O=C(c1cc(Br)cc([N+](=O)[O-])c1N[C@@H]1CCCN(C(=O)c2cncc3ccccc23)C1)N1CCCCC1` [Example 13, (R)-(5-bromo-2-((1-(isoquinolin-4-carbonyl)piperidin-3-yl)amino)-3-nitrophenyl)(piperidin-1-yl)methanone], the IC50 was less than 10 nM.

As for `O=C(N[C@H]1CCCC[C@H]1Nc1c(C(=O)N2CCCCC2)cc(Br)cc1[N+](=O)[O-])c1cncc(Br)c1` [Example 14], the IC50 was in the range of 10 to 50 nM. As to `O=C(c1cc(Br)cc([N+](=O)[O-])c1N[C@@H]1CCCN(C(=O)c2cncc3ccccc23)C1)N1CC2CC2C1` (stereo partly drawn) [Example 15, ((3R)-3-((2-(3-azabicyclo[3.1.0]hexan-3-carbonyl)-4-bromo-6-nitrophenyl)amino)piperidin-1-yl)(isoquinolin-4-yl)methanone], the IC50 lay within 10 to 50 nM. Under `O=C(N[C@H]1CCCC[C@H]1Nc1c(C(=O)N2CCC(F)(F)CC2)cc(Br)cc1[N+](=O)[O-])c1cc(=O)[nH]c2ccccc12` [Example 16, N-((1S,2R)-2-((4-bromo-2-(4,4-difluoropiperidin-1-carbonyl)-6-nitrophenyl)amino)cyclohexyl)-2-oxo-1,2-dihydroquinolin-4-formamide] stands 10 to 50 nM. Under `C[C@@H]1CN(C(=O)c2cc(Br)cc([N+](=O)[O-])c2N[C@@H]2CCCN(C(=O)c3cncc4[nH]ccc34)C2)C[C@H](C)O1` [Example 17] stands 10 to 50 nM; under `C[C@@H]1CN(C(=O)c2cc(Br)cc([N+](=O)[O-])c2N[C@@H]2CCCN(C(=O)C3CCNC(=O)C3)C2)C[C@H](C)O1` (stereo partly drawn) [Example 18, 4-((R)-3-((4-bromo-2-((2R,6S)-2,6-dimethylmorpholin-4-carbonyl)-6-nitrophenyl)amino)piperidin-1-carbonyl)piperidin-2-one], 100 to 200 nM. As for `CNc1cncc(C(=O)N2CCC[C@@H](Nc3c(C(=O)N4CCC(N5CCOCC5)CC4)cc(Br)cc3[N+](=O)[O-])C2)c1` [Example 19, (R)-(5-bromo-2-((1-(5-(methylamino)nicotinoyl)piperidin-3-yl)amino)-3-nitrophenyl)(4-morpholinopiperidin-1-yl)methanone], the IC50 lay in the range of 10 to 50 nM. Then `CNc1cncc(C(=O)N2C[C@H](Nc3c(C(=O)N4C[C@@H](C)O[C@@H](C)C4)cc(Br)cc3[N+](=O)[O-])C3(CC3)C2)c1` [Example 20], with 10 to 50 nM.

As to `CNc1cncc(C(=O)N2C[C@H](Nc3c(C(=O)N4C[C@@H](C)N[C@@H](C)C4)cc(Br)cc3[N+](=O)[O-])C3(CC3)C2)c1` [Example 21], the IC50 lay in the range of 10 to 50 nM.

`CNc1cncc(C(=O)N2CCC[C@@H](Nc3c(C(=O)N4CCN(CC(F)(F)F)CC4)cc(Br)cc3[N+](=O)[O-])C2)c1` [Example 22]: the IC50 was 10 to 50 nM. As to `CNc1cncc(C(=O)N2CCC[C@@H](Nc3c(C(=O)N4CCN(C(=O)C(F)(F)F)CC4)cc(Br)cc3[N+](=O)[O-])C2)c1` [Example 23, (R)-1-(4-(5-bromo-2-((1-(5-(methylamino)nicotinoyl)piperidin-3-yl)amino)-3-nitrobenzoyl)piperazin-1-yl)-2,2,2-trifluoroethan-1-one], the IC50 is 10 to 50 nM. Then `O=C(c1cc[nH]c(=O)c1)N1CCC[C@@H](Nc2c(C(=O)N3CCC(F)(F)CC3)cc(Br)cc2[N+](=O)[O-])C1` [Example 24, (R)-4-(3-((4-bromo-2-(4,4-difluoropiperidin-1-carbonyl)-6-nitrophenyl)amino)piperidin-1-carbonyl)pyridin-2 (1H)-one], with 100 to 200 nM; and `O=C1CN(C(=O)c2cc(Br)cc([N+](=O)[O-])c2N[C@@H]2CCCC[C@@H]2NC(=O)c2cncc3cc(Cl)ccc23)CCN1` [Example 25, N-((1S,2R)-2-((4-bromo-2-nitro-6-(3-oxopiperazin-1-carbonyl)phenyl)amino)cyclohexyl)-7-chloroisoquinolin-4-formamide], with 10 to 50 nM.

Turning to `Cc1cc(C(=O)N2CCC[C@@H](Nc3c(C(=O)N4CCOCC4)cc(Br)cc3[N+](=O)[O-])C2)cc(=O)[nH]1` [Example 26, (R)-4-(3-((4-bromo-2-(morpholin-4-carbonyl)-6-nitrophenyl)amino)piperidin-1-carbonyl)-6-methylpyridin-2 (1H)-one], the IC50 lay in the range of 10 to 50 nM. Under `Cc1cc(C(=O)N2CCC[C@@H](Nc3c(C(=O)N4C[C@@H](C)O[C@@H](C)C4)cc(Br)cc3[N+](=O)[O-])C2)cc(=O)[nH]1` [Example 27, 4-((R)-3-((4-bromo-2-((2S,6R)-2,6-dimethylmorpholin-4-carbonyl)-6-nitrophenyl)amino)piperidin-1-carbonyl)-6-methylpyridin-2 (1H)-one] stands 10 to 50 nM; under `O=C(c1cc(Br)cc([N+](=O)[O-])c1N[C@@H]1CCCN(C(=O)c2cncc3[nH]ccc23)C1)N1CCC(F)(F)CC1` [Example 28], 10 to 50 nM. Under `CNc1cncc(C(=O)N2CCC[C@@H](Nc3c(C(=O)N4CCN(C)CC4)cc(Br)cc3[N+](=O)[O-])C2)c1` [Example 29, (R)-(5-bromo-2-((1-(5-(methylamino)nicotinoyl)piperidin-3-yl)amino)-3-nitrophenyl)(4-methylpiperazin-1-yl)methanone] stands 10 to 50 nM; under `CNc1cncc(C(=O)N2CC(Nc3c(C(=O)N4CCCCC4)cc(Br)cc3[N+](=O)[O-])C(F)(F)C2)c1` (stereo not shown) [Example 32, (5-Bromo-2-((4,4-difluoro-1-(5-(methylamino)nicotinoyl)pyrrolidin-3-yl)amino)-3-nitrophenyl)(piperidin-1-yl)methanone], 10 to 50 nM.
